Read-outs that look alike come from different tables or passages of the source. One block for each compound: values may come before it.
Experiments:
[1] = system: indomethacin-induced ulcers; assay: Indomethacin-induced ulcers (indomethacin ulcer preventing effect); type: in vivo, male rats of the Crj : Wistar strain; conditions: rats; for ED50: ulcer inhibition rate (Table 2); for Ulcer index (aver. ± SE): indomethacin 10 mg/kg oral ulcer, index 0-4
Experimental: (§1) As test samples, we used the PGE as obtained in Examples 2 to 52 as described herein, 13,14-dihydro-15-keto-PGE2 (produced by Funakoshi & Co.) being employed as a control reference.
(§2) Each group of test animals used consisted of 8 to 10 male rats of the Crj : Wistar strain, weighing 180 to 230 g. Test animals were fasted for 24 hours before the oral administration of the test samples; in the case of development of confinement-stress induced ulcers through immersion in water, 10 minutes after oral administration of the test specimens, the aminals were confined in a stress cage developed by Univ. of Tokyo, then immersed up to the ensiform process of sternum in water at 23°C for 4 hours and sacrificed; in the case of formation of indomethacin-induced ulcers, shortly after the materials were given, animals were given indomethacin orally at a dose of 10 mg/kg and sacrificed after 5 hours.
(§3) The stomacks were taken out, followed by fixation with 1 % formalin, and incised along the greater curvature to carry out investigation under an illuminated magnifier for ulceration. The degree and extent of lesion and ulcer were rated based on the ulceration index being classified into the following five numerical categories: • 0: normal, with no lesion detected; • 1: bleeding or erosion of mucosa; • 2: development of less than 5 small ulcers (not greater than 2 mm in diameter); • 3: generation of not less than 5 small ulcers or a large ulcer (not less than 2 mm in diameter); • 4: generation of not less than 2 large ulcers.
(§4) On the basis of the criteria that the rats with the ulceration index of not less than "2", the ulcer inhibition rate (EDso) was calculated from ulcer-generation ratio in the control and the ratio of the test specimens.

[2] = system: confinement-stress induced ulcers through immersion in water; assay: Confinement-stress induced ulcers through immersion in water (hydrorestraint stress ulcer preventing effect); type: in vivo, male rats of the Crj : Wistar strain; conditions: for inhibition at 1 mg/kg: dosage 1 mg/kg; for inhibition at 3 mg/kg: dosage 3 mg/kg; for inhibition at 10 mg/kg: dosage 10 mg/kg; for inhibition at 5 mg/kg: dosage 5 mg/kg; for inhibition at 0.3 mg/kg: dosage 0.3 mg/kg; for ulcer inhibiting effect: conclusion in words from Table 3
Experimental: as §1, §2, §3, §4

[3] = system: trachea; assay: Tracheal relaxation, isolated tracheal rings constricted with histamine; parameters: species or system male gunea pig; conditions: guinea pig trachea, inhibition of constriction under histamine 5.4 x 10^-4 M, IC50 class, read-out: Tracheal relaxation effect
Experimental: A male gunea pig (of about 300 g in weight) was struck to death, and its artery was cut to dehematize. Its trachea, after having been extracted, was cut open lengthwise on the opposite side to the trachea smooth muscle, and seven tracheal rings were connected by string in a chain-like pattern, same being hung in a Magnus tube.
Trachea was brought to rest for 60 - 90 minutes and until tracheal equilibrium was reached. Thereafter, 5.4 x 10 ^-4 M of histamine was administered in such manner that it was cumulatively administered at 6 minutes' intervals after a constriction peak was reached. Tracheal relaxation with the material tested was expressed in terms of ratio of constrictional inhibition under histamine administering, and values for IC50 were determined. + : IC50 < 10^-7 M ± : 10^-5 M ≦ IC50 ≦ 10^-7 M -: 10^-5 M < IC50

[4] = system: ileum; assay: Intestinal constriction effect, isolated ileum in Magnus tube; parameters: species or system male Wister rat; conditions: rat ileum, constriction relative to acetylcholine, ED50 class
Experimental: A male Wister rat (of 250 - 300g in weight) was struck to death, and immediately its carotid artery was cut to dehematize. An ileum portion located about 10 cm from the cecum was extracted, and after its contents were washed away with a Tyrode liquid, a 1.5 - 2 cm long part of it was cut off and hung in a Magnus tube.
The constriction of the ileum was brought to rest for 15 - 20 minutes until the ileum was allowed to be stabilized, and subsequently the ileum was constricted with […]/mt of acetylcholine. After constructions of same magnitude were had two times, the material to be tested was cumulatively administered at one- minute intervals.
Constrictions with the material tested were expressed in terms of ratios, based on constriction per 10 g/m t of acetylcholine, and values for ED50 were determined. + : EDso < 10^-6 M ±: 10^-4 M ≦ ED50 ≦ 10^-6 M -: 10^-4 M < ED50

[5] = system: uterus; assay: Uterine constriction, isolated uterus in Magnus tube; parameters: species or system female rat; conditions: rat uterus, constriction relative to 1 mU oxytocin = 100, EC50 class; read-out: Uterus constriction effect
Experimental: A female rat (of 150g in weight) was dehematized to death, and its uterus was taken out, which was cut to a length of 1.5 - 2.5 cm. The cut uterus was hung in a magnus tube. The uterus was constricted several times with 1 mU Oxytocin. After stable uterine movement was obtained, the material to be tested was independently administered. Constrictions with the material were expressed in terms of ratios based on constriction of 1 mU of oxytocin = 100, and values of EC50 were determined on the following standards. +:EC50 < 10^-7 M ±:10^-5 M ≦ EC50 ≦ 10^-7 M -: 10^-5 M < ECso

[6] = Rattus norvegicus, indomethacin ulcer, oral, dosage 3 mg/kg, read-out: Inhibition factor (%)
[7] = Rattus norvegicus, indomethacin ulcer, oral, dosage 10 mg/kg, read-out: Inhibition factor (%)
[8] = Rattus norvegicus, indomethacin ulcer, oral
[9] = Rattus norvegicus, stress ulcer, rats, oral, read-out: Inhibition factor (%)
[10] = Rattus norvegicus, stress ulcer, rats, oral, ulcer inhibition rate, ulceration index not less than 2 counted (Table 1), read-out: ED50
[11] = Rattus norvegicus, indomethacin ulcer, oral, dosage 20 mg/kg, read-out: Inhibition factor (%)
[12] = Rattus norvegicus, indomethacin ulcer, oral, dosage 1 mg/kg, read-out: Inhibition factor (%)
[13] = Rattus norvegicus, po, hydrorestraint stress-ulcer preventing effect, procedure of Test Example 1 (Table 3), read-out: Ulcer inhibiting effect ED50

Compound: CCCCCC(=O)CC[C@H]1[C@H](O)CC(=O)[C@@H]1CC(=O)CCCCC(=O)OCC (racemic) [(11)]
inhibition at 3 mg/kg [1, 6]: 0%
inhibition at 10 mg/kg [1, 7]: 50%
ED50 [1, 8]: 10 mg/kg
Ulcer index (aver. ± SE) ([1]; dosage 3 mg/kg): 2.6±0.3
Ulcer index (aver. ± SE) ([1]; dosage 10 mg/kg): 2.0±0.2
inhibition at 1 mg/kg [2, 9]: 25%
inhibition at 3 mg/kg [2, 9]: 57.1%
inhibition at 10 mg/kg [2, 9]: 85.7%
ED50 [2, 10]: 2.4 mg/kg

Compound: CCCCCC(=O)CC[C@H]1[C@H](O)CC(=O)[C@@H]1C/C=C\CCCC(=O)O [(1)]
inhibition at 20 mg/kg [1, 11]: 4%
ED50 [1, 8]: > 20 mg/kg
Ulcer index (aver. ± SE) ([1]; dosage 20 mg/kg): 2.4±0.4
inhibition at 20 mg/kg ([2]; Rattus norvegicus, stress ulcer, rats, oral, dosage 20 mg/kg, read-out: Inhibition factor (%)): 6.3%
ED50 [2, 10]: > 20 mg/kg

Compound: CCCCCC(=O)CC[C@H]1[C@H](O)CC(=O)[C@@H]1C/C=C\CCCC(=O)OC [(2)]
inhibition at 3 mg/kg [1, 6]: 30%
inhibition at 6 mg/kg ([1]; Rattus norvegicus, indomethacin ulcer, oral, dosage 6 mg/kg, read-out: Inhibition factor (%)): 50%
inhibition at 20 mg/kg [1, 11]: 100%
ED50 [1, 8]: 6 mg/kg
Ulcer index (aver. ± SE) ([1]; dosage 3 mg/kg): 1.9±0.4
Ulcer index (aver. ± SE) ([1]; dosage 6 mg/kg): 1.4±0.3
Ulcer index (aver. ± SE) ([1]; dosage 20 mg/kg): 0.4±0.2
inhibition at 5 mg/kg [2, 9]: 58.3%
inhibition at 15 mg/kg ([2]; Rattus norvegicus, stress ulcer, rats, oral, dosage 15 mg/kg, read-out: Inhibition factor (%)): 87.5%
ED50 [2, 10]: 4 mg/kg

Compound: CCCCCC(=O)CC[C@H]1[C@H](O)CC(=O)[C@@H]1C/C=C\CCCC(=O)OCC [(3)]
inhibition at 3 mg/kg [1, 6]: 42.9%
inhibition at 10 mg/kg [1, 7]: 71.4%
ED50 [1, 8]: 4.4 mg/kg
Ulcer index (aver. ± SE) ([1]; dosage 3 mg/kg): 1.7±0.4
Ulcer index (aver. ± SE) ([1]; dosage 10 mg/kg): 1.0±0.3
inhibition at 1 mg/kg [2, 9]: 25%
inhibition at 3 mg/kg [2, 9]: 86.1%
inhibition at 10 mg/kg [2, 9]: 100%
ED50 [2, 10]: 1.5 mg/kg

Compound: CCCCCC(=O)CC[C@H]1[C@H](O)CC(=O)[C@@H]1C/C=C\CCCC(=O)OCCC [(4)]
inhibition at 1 mg/kg [2, 9]: 16.7%
inhibition at 5 mg/kg [2, 9]: 44.4%
ED50 [2, 10]: 7 mg/kg

Compound: CCCCCC(=O)CC[C@H]1[C@H](O)CC(=O)[C@@H]1C/C=C\CCCC(=O)OC(C)C [(5)]
inhibition at 1 mg/kg [2, 9]: 14.3%
inhibition at 5 mg/kg [2, 9]: 44%
ED50 [2, 10]: 6.5 mg/kg

Compound: CCCCCC(=O)CC[C@H]1[C@H](O)CC(=O)[C@@H]1CCCCCCC(=O)OC [(6)]
inhibition at 3 mg/kg [2, 9]: 28%
inhibition at 10 mg/kg [2, 9]: 72.2%
ED50 [2, 10]: 5.5 mg/kg

Compound: CCCCCC(=O)CC[C@H]1[C@H](O)CC(=O)[C@@H]1CCCCCCC(=O)OCC [(7)]
inhibition at 3 mg/kg [2, 9]: 37.5%
inhibition at 10 mg/kg [2, 9]: 75%
ED50 [2, 10]: 4.5 mg/kg

Compound: CCCCCC(=O)CC[C@H]1[C@H](O)CC(=O)[C@@H]1CC(=O)CCCCC(=O)OC [(8)]
inhibition at 1 mg/kg [1, 12]: 14.3%
inhibition at 3 mg/kg [1, 6]: 42.9%
ED50 [1, 8]: 3.8 mg/kg
Ulcer index (aver. ± SE) ([1]; dosage 1 mg/kg): 2.3±0.4
Ulcer index (aver. ± SE) ([1]; dosage 3 mg/kg): 1.7±0.3
inhibition at 0.3 mg/kg [2, 9]: 30.6%
inhibition at 1 mg/kg [2, 9]: 62.5%
ED50 [2, 10]: 0.6 mg/kg

Compound: CCCCCC(=O)CC[C@H]1[C@H](O)CC(=O)[C@@H]1CC(=O)CCCCC(=O)OCC [(9)]
inhibition at 1 mg/kg [1, 12]: 37.5%
inhibition at 3 mg/kg [1, 6]: 50.5%
ED50 [1, 8]: 3 mg/kg
Ulcer index (aver. ± SE) ([1]; dosage 1 mg/kg): 2.1±0.3
Ulcer index (aver. ± SE) ([1]; dosage 3 mg/kg): 1.5±0.3
inhibition at 0.3 mg/kg [2, 9]: 37.5%
inhibition at 1 mg/kg [2, 9]: 75%
ED50 [2, 10]: 0.45 mg/kg

Compound: CCCCCC(=O)CC[C@H]1[C@H](O)CC(=O)[C@@H]1CC(=O)CCCCC(=O)OCCCC [(10)]
inhibition at 1 mg/kg [2, 9]: 25.5%
inhibition at 3 mg/kg [2, 9]: 78.4%
ED50 [2, 10]: 1.5 mg/kg

Compound: CCOC(=O)CCCCC(=O)C[C@H]1C(=O)C[C@@H](O)[C@@H]1CCC(=O)CCCC(C)C [(36)]
inhibition at 0.3 mg/kg [2, 9]: 22.6%
inhibition at 1 mg/kg [2, 9]: 57%
ED50 [2, 10]: 0.8 mg/kg

Compound: CCCCCCC(=O)CC[C@H]1[C@H](O)CC(=O)[C@@H]1CC(=O)CCCCC(=O)OCC [(37)]
inhibition at 1 mg/kg [2, 9]: 8.1%
inhibition at 3 mg/kg [2, 9]: 45.9%
inhibition at 6 mg/kg ([2]; Rattus norvegicus, stress ulcer, rats, oral, dosage 6 mg/kg, read-out: Inhibition factor (%)): 79.7%
ED50 [2, 10]: 3 mg/kg

Compound: CCCCCC(=O)CC[C@H]1[C@H](C)CC(=O)[C@@H]1CC(=O)CCCCC(=O)OC [(38)]
inhibition at 0.3 mg/kg [2, 9]: 8.1%
inhibition at 1 mg/kg [2, 9]: 45.9%
inhibition at 3 mg/kg [2, 9]: 79.7%
ED50 [2, 10]: 1.5 mg/kg

Compound: CCCCCC(=O)CC[C@H]1[C@H](C)CC(=O)[C@@H]1CC(=O)CCCCC(=O)OCC [(39)]
inhibition at 0.3 mg/kg [2, 9]: 30.2%
inhibition at 1 mg/kg [2, 9]: 77.5%
inhibition at 3 mg/kg [2, 9]: 85.3%
ED50 [2, 10]: 0.5 mg/kg

IC50 [3]: < 100 nM
EC50 [4]: < 1000 nM
EC50 [5]: < 100 nM
Compound: CCCCC[C@H](O)/C=C/[C@H]1[C@H](O)CC(=O)[C@@H]1C/C=C\CCCC(=O)O [A]
ED50 [2, 13]: 0.5 mg/kg

IC50 [3]: < 100 nM
EC50 [4]: < 1000 nM
EC50 [5]: 100 to 10000 nM
Compound: CCCCC[C@H](O)/C=C/[C@H]1[C@H](O)CC(=O)[C@@H]1C/C=C\CCCC(=O)OCC [B]
ED50 [2, 13]: 0.4 mg/kg

IC50 ([3]; Cavia porcellus): 100 to 10000 nM
EC50 [4]: > 100000 nM
EC50 [5]: 100 to 10000 nM
Compound: CCCCCC(=O)CC[C@H]1[C@H](O)CC(=O)[C@@H]1C/C=C\CCCC(=O)O [Material (1), 13, 14-dihydro-15-keto-PGE2, reference compound]
ED50 [2, 13]: > 20 mg/kg
ulcer inhibiting effect [2]: no pharmacological or physiological effect
antiulcerative effect ([2]; conclusion in words from Tables 1 and 2): no antiulcerative effect

IC50 [3]: > 10000 nM
EC50 [4]: > 100000 nM
EC50 [5]: > 10000 nM
Compound: CCCCCC(=O)CC[C@H]1[C@H](O)CC(=O)[C@@H]1C/C=C\CCCC(=O)OCC [Material (3), 13, 14-dihydro-15-keto-PGE2 ethyl ester]
ED50 [2, 13]: 1.5 mg/kg
ulcer inhibiting effect [2]: a high degree of ulcer inhibiting effect
